One molecule from patent US11382907B2, “Methods and compositions for treating aging-associated impairments using CCR3-inhibitors” (Alkahest, Inc., priority 2017, dated 2022) can be followed below.

SMILES strings stand for the structures. Entries after “also recorded” stand apart in the source; their conditions may differ.

The Ki is a dissociation constant, usually derived from enzyme kinetics or from competition with a known ligand. A higher Ki goes with lower affinity.

In assay [1] the test system is CD68+ activated microglia. As to the kind of experiment: IHC of CD68+ activated microglia in hippocampus of aged mice. In kind it is in vivo, C57Bl/6 mice. The conditions noted are these: 23-month-old mice, 30 mg/kg SQ BID 21 days. The source says: Mice were taken down on the day following the end of behavior testing. Anesthesia was induced by 2,2,2-tribromoethanol and mice were subsequently perfused with 0.9% saline trans-cardially. The brains were dissected and cut sagitally in two even halves. One half was snap frozen for later use in dry ice, and the other was fixed in 4% paraformaldehyde in PBS for use in immunohistochemistry. After two days of fixation, the hemibrains were transferred to a 30% sucrose in PBS solution and changed after two days. Hemibrains were sectioned at 30 um on a microtome at −22° C. Brain sections were stored in cryoprotectant media at −20° C. until needed for staining. Blocking was done on free floating sections in the appropriate serum at 10% serum in PBST 0.5%. Primary antibodies were incubated overnight at 4 C. For light microscopy, the following antibodies were used in the given concentrations: DCX, 1:200, Santa Cruz BioTech, CD68, 1:1000. AbD Serotec. Secondary biotinylated antibodies were applied the next day at a concentration of 1:300. Staining visualization was achieved by reaction with the ABC kit (Vector) and diaminobenzidine (Sigma). Dehydration of the mounted slides was achieved using ethanol and xylene dips. Images were acquired on a Leica light microscope at 5× magnification.
23-month-old C57Bl/6 mice were dosed with either vehicle control or Compound 1 subcutaneously twice daily for 21 days. […]

A further assay relates to IL-1beta mRNA. As to the kind of experiment: qPCR of IL-1beta mRNA in cortical brain tissue of mice given daily LPS. Format: in vivo, C57Bl/6 mice. The following applies: 3-month-old mice, daily LPS IP 7 weeks, 30 mg/kg PO BID 4 weeks. The source says: Snap-frozen hemibrains were dissected out into cortex, hippocampus, striatum, and thalamus. The cortex was split into three homogeneous parts and one part was used for RNA isolation. RNA was isolated using the Prolink RNA Mini Kit (Thermo Fisher Scientific #12183025). cDNA was made using Taqman RT Kit (Thermo Fisher Sci #N8080234). qPCR was run on a Quant Studio 6 using custom made Taqman Multiplex Primers for IL-1beta and GAPDH. All samples were run together on a single plate and analyzed for ddCT relative to their endogenous control first and then relative to the control group.
Three-month-old C57 mice were given daily doses of lipopolysaccharide (LPS) 0.5 mg/kg IP to induce inflammation and treated with Compound 1 for up to 4 weeks. […]
A general note: Quantitative PCR measures a nucleic acid by following its amplification.

The next assay addresses T1, CCR3 (Mus musculus, UniProt P51678).
T1 construct: host or cells: unnamed cell line
T1 sequence (P51678 1-359): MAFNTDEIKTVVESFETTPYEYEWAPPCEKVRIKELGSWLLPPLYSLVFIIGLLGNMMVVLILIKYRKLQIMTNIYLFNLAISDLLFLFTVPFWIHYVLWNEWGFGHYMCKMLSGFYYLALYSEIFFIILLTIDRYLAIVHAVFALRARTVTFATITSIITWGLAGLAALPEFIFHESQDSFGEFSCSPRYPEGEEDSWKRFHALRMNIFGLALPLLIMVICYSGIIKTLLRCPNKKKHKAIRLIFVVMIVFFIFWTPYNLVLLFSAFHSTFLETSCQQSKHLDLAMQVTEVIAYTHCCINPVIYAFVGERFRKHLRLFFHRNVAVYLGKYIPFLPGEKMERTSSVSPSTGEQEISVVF
The experiment in a line: cell line receptor binding (Ki for the compound in mice). The following applies: determined by cell line receptor binding.

Assay [2] concerns twenty-four-month-old C57 mice. As to the kind of experiment: T maze test in aged mice. Format: in vivo. The following applies: 4 weeks continuous infusion by osmotic pump. The method, then:
The Water Maze was filled with water at least 24 hours prior to the test to allow it to reach room temperature. The water was dyed with white latex paint to make the animals visible for tracking and to allow for the use of a hidden platform. Two distinct visual cues were placed at the end of both T-arms of the T-Maze insert. On day 1 animals were given 4 trials each with a visible platform and a 30 min inter-trial interval. Animals were given 60 seconds to reach the platform. […] The goal arm was switched after every third mouse and both treatment groups had equal numbers of right and left turn goal arms. After each trial the mice were placed in an empty cage with blue pads and allowed to dry off under a red light lamp before being placed back into their home cage. Day 2 is the testing day, where animals are subjected to the same test of 4 trials each and a 30 min inter trial interval, but with a hidden platform. Animals were scored for right or wrong choice and for latency to reach the platform, and a binomial test was conducted to compare success rates between control and compound-treated mice. All trials were recorded using TopScan.
Twenty-four-month-old C57 mice were treated for 4 weeks with continuous infusion of Compound 1 or vehicle by Alzet osmotic pump, which were implanted to continuously deliver the two treatments. […]

On to `Cc1cc(C(=O)N(C)C)cc(NC(=O)[C@H]2CCC(=O)N2C2CCN(Cc3ccc(Cl)c(C)c3)CC2)n1` [Compound 1], for which the “CD68+ activated microglia in the hippocampus” value in assay [1] is listed as “strong trend towards decreased microgliosis; also recorded: trend lower”. Besides, in the assay on IL-1beta mRNA, the “IL-1beta mRNA level in brain” value is listed as “significant decrease in IL-1beta expression”. In addition, the inhibitory constant (Ki) on CCR3 is 0.124 µM. Besides, the “T maze success versus vehicle (binomial test)” value in assay [2] is “succeeded more than vehicle-treated mice”.
